The text below walks through data of PubChem BioAssay AID1645865 (Buhrlage Lab, Dana-Farber Cancer Institute and Novartis …, 2021).

SMILES strings stand for the structures. Activity calls are given as the source filed them.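 Rule for the calls: active = maximal inhibition of the USP30 enzyme reaching 30% or more across the dose series; inactive = the rest.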

Chain of Ubiquitin carboxyl-terminal hydrolase 30 (Homo sapiens) (Q70CQ3 whole entry, looked up): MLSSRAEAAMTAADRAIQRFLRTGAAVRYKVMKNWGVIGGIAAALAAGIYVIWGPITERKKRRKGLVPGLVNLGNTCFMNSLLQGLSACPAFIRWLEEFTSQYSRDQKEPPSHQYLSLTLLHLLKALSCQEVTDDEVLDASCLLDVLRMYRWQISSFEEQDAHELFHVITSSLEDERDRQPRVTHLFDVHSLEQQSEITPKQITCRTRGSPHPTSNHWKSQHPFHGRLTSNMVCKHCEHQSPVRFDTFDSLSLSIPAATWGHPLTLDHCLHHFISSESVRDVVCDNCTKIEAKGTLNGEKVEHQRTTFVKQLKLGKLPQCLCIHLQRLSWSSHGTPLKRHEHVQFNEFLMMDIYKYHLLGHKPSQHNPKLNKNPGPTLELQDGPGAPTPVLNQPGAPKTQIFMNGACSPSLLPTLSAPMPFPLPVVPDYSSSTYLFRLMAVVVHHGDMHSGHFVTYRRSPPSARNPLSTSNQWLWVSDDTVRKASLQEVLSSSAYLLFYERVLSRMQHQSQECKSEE

The test has as its target Ubiquitin carboxyl-terminal hydrolase 30 (Homo sapiens) (UniProt Q70CQ3). Nature of the test: inhibitors of ubiquitin-specific protease 30 deubiquitylating enzyme, concentration dependence, in vitro biochemical, validation of primary hits (AID 1645865). The settings on record: purified USP30, Ub-rhodamine cleavage, fluorescence, 2 h.
The term IC50 denotes the concentration at which inhibition is half-maximal. Consider `COc1ccc(NC(=O)c2sc(N3CCOCC3)nc2-c2ccccc2)c(OC)c1`, for which the IC50 is 18.9 µM.

For the compound `CSc1ccccc1C(=O)Nc1nc(-c2ccncc2)cs1`, the IC50 is 23.3 µM.

As to `O=C1Cc2ccccc2C(=O)N1c1ccc2c(c1)OCO2`, the IC50 was > 50 µM (inactive).

Turning to `O=C(c1ccc2cc[nH]c2c1)N1CCC(Nc2cccnc2)C1` (centres undefined), the IC50 was > 50 µM (inactive).

As to `CCCC(=O)Nc1ccc(SCc2nnc(-c3ccccc3)o2)cc1`, the IC50 is > 50 µM (inactive).

As to `Cc1nc(N2CCCC2)ncc1C(=O)Nc1ccc(F)c(F)c1`, the IC50 was 31.1 µM.

Take `O=C(NCc1ccccc1)c1ccc(-c2ccc(N3CCCC3)nn2)cc1`: the IC50 was > 50 µM (inactive).

As for `CN1CCN(C(=O)c2cc(-c3ccn(-c4ccccc4)n3)n3ccccc23)CC1`, the IC50 was > 50 µM (inactive).

Turning to `O=C(CSc1nnc(-c2ccncc2)n1Cc1ccccc1)c1ccc2[nH]c(O)cc2c1`, the IC50 is > 50 µM (inactive).

For `COc1cccc(-c2cc(C(=O)N3CCN(c4ccc(N5CCOCC5)nn4)CC3)[nH]n2)c1`, the half-inhibitory concentration (IC50) is 38.5 µM.

As for `Cc1ccc(NC(=O)Cn2cc(S(=O)(=O)N3CCCC3)ccc2=O)cc1`, the IC50 was 20.3 µM.

Regarding `COc1cc(=O)c(C(=O)Nc2ccc(C#N)cc2)nn1-c1cccc(F)c1`, the IC50 was 25.4 µM.

On to `Cc1nc(-c2noc(-c3ccncc3)n2)cn1CC(=O)N1CCN(c2ccc(F)cc2)CC1`, for which the IC50 is 39.1 µM.

In the case of `CN1CCN(c2ccc3nc(-c4ccccc4)c(-c4ccccc4)nc3c2)CC1`, the IC50 is > 50 µM (inactive).

On to `COc1cc(Cl)ccc1Oc1ncnc2sc(C)c(C)c12`, for which the IC50 is > 50 µM (inactive).

Take `O=C1CN(C(=O)COC(=O)CCCN2C(=O)c3cccc4cccc(c34)C2=O)c2ccccc2N1`: the IC50 was > 50 µM (inactive).

Turning to `CN(C)c1ccc(/C=N/NC(=O)c2ccc(Cl)cc2)cc1`, the IC50 is 10.7 µM.

In the case of `Cc1cccc(NC(=O)c2nn(C)c3ccccc3c2=O)c1`, the IC50 is 24.6 µM.

Take `CCOc1ccc2c(c1)c(=O)c(C(=O)c1ccc(C)cc1)cn2CC(=O)Nc1ccc(OC)c(OC)c1`: the IC50 was 0.732 µM.

As to `COc1cccc(NC(=O)c2ccc(-c3csc(C)n3)cc2)c1`, the IC50 is > 50 µM (inactive).

With `COCCNC(=O)c1ccc(-c2ccc(N3CCCCC3)nc2)cc1`, the IC50 is 22.9 µM.

In the case of `Cc1nc(Nc2ncc(C)s2)cc(C2CN(C(=O)Cc3ccccc3)CCO2)n1` (centres undefined), the IC50 was 33.7 µM.

Consider `Cc1cccc(NC(=O)Nc2nnc(CC(=O)NCc3ccccc3)s2)c1`, for which the IC50 was 6.01 µM.

Regarding `O=C(O)c1nccnc1C(=O)N1CCc2ccccc2C1`, the IC50 is > 50 µM (inactive).

Regarding `COc1ccc(NC(=O)CN2CCN(c3ccc(C(C)=O)cc3)CC2)cc1S(=O)(=O)N1CCCCC1`, the IC50 is 36.4 µM.

As to `CCCC(=O)c1c[nH]c(C(=O)NCc2ccc(F)cc2)c1`, the IC50 was 17.4 µM.

As to `O=C1CC(C(=O)Nc2ccccc2F)n2nc(-c3ccccc3)cc2N1` (centres undefined), the IC50 was 24.3 µM.

Take `Cc1ccc(Cn2cc(-c3noc(-c4ccncc4)n3)nn2)cc1`: the IC50 is 27.6 µM.

With `CO[C@H]1/C=C/OC2(C)Oc3c(C)c(O)c4c(c3C2=O)C2(C=C(NC(=O)/C(C)=C\C=C\[C@H](C)[C@H](O)[C@@H](C)[C@@H](O)[C@@H](C)[C@H](OC(C)=O)C1C)C4=O)OCC(=O)O2` (some centres undefined), the IC50 was > 50 µM (inactive).

In the case of `Cc1ccc(OC(=O)c2cn(-c3ccccc3)nc2-c2cccnc2)cc1`, the IC50 was > 50 µM (inactive).

Consider `Cc1sc(-c2ccc(Cl)nc2)nc1OC(=O)c1ccc(F)cc1F`, for which the IC50 was 8.06 µM.

For the compound `Cn1c(=O)c(C(=O)CN2CCN(c3ccc(O)cc3)CC2)c(N)n(Cc2ccccc2)c1=O`, the IC50 was > 50 µM (inactive).

Take `O=C(CSc1nc2ccccc2n1S(=O)(=O)c1ccc(Br)cc1)Nc1ccc([N+](=O)[O-])cc1Cl`: the IC50 was 41 µM.

In the case of `O=C(Nc1oc2ccccc2c(=O)c1-c1ccc2c(c1)OCO2)C1CCCCC1`, the IC50 is 27.2 µM.

Regarding `Cc1ccccc1C(=O)OCCN1C(=O)c2cccc3c(N4CCCCC4)ccc(c23)C1=O`, the IC50 is > 50 µM (inactive).

For `COc1ccccc1C(=O)N1CCc2[nH]c3ccc(F)cc3c2C1`, the IC50 was > 50 µM (inactive).

For the compound `CCOc1ccc(-c2ccc3nnc(SCC(=O)Nc4cccc(C(C)=O)c4)n3n2)cc1`, the IC50 was 3.81 µM.

Turning to `Cc1ccc(NC(=O)Cn2c(Nc3cccc(C)c3)nc(C)cc2=O)cc1`, the IC50 was 26.6 µM.

Turning to `CCc1ccc(NC(=O)COC(=O)c2n[nH]c3ccccc23)cc1`, the IC50 is 4.4 µM.

Consider `Cc1c(-c2nsc(NC(=O)c3ccc(Cl)cc3)n2)nnn1-c1ccccc1F`, for which the IC50 is 0.488 µM.

For the compound `CCOc1ccc(NC(=O)Cn2c(=O)n(CCC(=O)NCc3ccco3)c(=O)c3ccccc32)cc1`, the IC50 was 4.08 µM.

Consider `O=C(COC(=O)c1ccc(Cl)cc1)Nc1ccc2[nH]c(=O)[nH]c2c1`, for which the IC50 is 3.98 µM.

Regarding `O=C(Cn1c(-c2ccccc2)ncc(C(=O)NC2CC2)c1=O)Nc1ccccc1`, the IC50 is 14.4 µM.

Regarding `N#Cc1cccnc1N1CCN(C(=O)Nc2cccc3ccccc23)CC1`, the IC50 was > 50 µM (inactive).

Consider `CCOC(=O)c1c(C)oc2nc(CSc3ccccc3)[nH]c(=O)c12`, for which the IC50 is > 50 µM (inactive).

As to `CS(=O)(=O)N1CCCN(c2nc3cc(Cl)ccc3n3cccc23)CC1`, the IC50 was > 50 µM (inactive).

Consider `c1ccc(-c2ccc(NCc3ccc4c(c3)OCO4)nn2)cc1`, for which the concentration for half-maximal inhibition (IC50) was 35.1 µM.

In the case of `Cc1ccc2cc3c(nc2n1)CCN(Cc1ccc(F)cc1)C3`, the IC50 was > 50 µM (inactive).

For `Cc1ncc(CO)c2c1Oc1nc(-c3cccc(Cl)c3)nc(SCC(=O)N3CCCCC3)c1C2`, the IC50 is > 50 µM (inactive).

On to `O=C(Nc1cccc(Cl)c1)c1ncn2c1CNS(=O)(=O)c1ccccc1-2`, for which the IC50 is 12.3 µM.

Take `Cc1ccc2c(C)nc(Nc3ncc4c(n3)CC(c3ccco3)CC4=O)nc2c1` (centres undefined): the IC50 is < 0.05 µM.

With `O=C(COC(=O)c1cc(Cl)ccc1O)Nc1ccc2c(c1)OCCO2`, the IC50 was 16.3 µM.

In the case of `CCn1cnc2ccc(C(=O)NC3CC3)cc2c1=O`, the IC50 is > 50 µM (inactive).

Regarding `Cc1ccc(-c2nc(-c3ccccc3)c(S(=O)(=O)CC(=O)Nc3ccc(C)c(C)c3)[nH]2)cc1`, the IC50 is > 50 µM (inactive).

As to `COc1cccc(NC(=O)c2nnn(-c3ccccc3)n2)c1`, the IC50 was > 50 µM (inactive).

`CC1(C)Cc2c(c(-c3ccco3)nc3sc4c(SCCCc5ccccc5)ncnc4c23)CO1`: the IC50 was > 50 µM (inactive).

For the compound `COc1ccc(-n2nnc(C(=O)Nc3ccccc3)c2N)cc1`, the IC50 is > 50 µM (inactive).

In the case of `O=C(COc1ccc(F)cc1)Nc1cnc(-c2ccc(Cl)cc2)nc1`, the IC50 is 38 µM.

In the case of `COc1c(Cl)ccc2c(=O)c3c(O)c4c5c(c3oc12)OCO[C@H]5[C@@H](OC)c1cc2c(c(O)c1-4)C(=O)N(C)[C@H](OC)[C@@H]2O`, the IC50 is 4.94 µM.

On to `COC1=C(C2=C(OC)C(=O)c3cc4c(c(O)c3C2=O)C(=O)OC(C)C4)C(=O)c2c(cc3c(c2O)C(=O)OC(C)C3)C1=O` (centres undefined), for which the IC50 is > 50 µM (inactive).

As for `CN1CCC(N(C)S(=O)(=O)c2ccc(NC(=O)c3cccc(OCc4ccccc4)c3)cc2)CC1`, the IC50 was 34.3 µM.

For the compound `Cc1ccc(-c2csc(-n3ncc(C(=O)N4CCN(C(=O)Nc5cccc6ccccc56)C(C)C4)c3C(C)C)n2)cc1` (centres undefined), the IC50 was > 50 µM (inactive).

`CCOc1ccc(NC(=O)Cn2c(=O)n(CCC(=O)NCc3ccccc3OC)c(=O)c3ccccc32)cc1`: the IC50 was 3.39 µM.

Take `CN1C(=O)COc2ccc(NC(=O)c3cc(-c4ccccc4)on3)cc21`: the IC50 is 14.1 µM.

Regarding `COc1cccc(NC(=O)Cc2sc(Nc3cc(C)cc(C)c3)nc2O)c1`, the IC50 is 23 µM.

As for `Cc1cc(C(=O)N2CCOCC2)c(C)n1-c1ccc(O)cc1`, the IC50 is > 50 µM (inactive).

For `COc1ccc(NC2c3ccccc3C(=O)N2c2ccccn2)cc1` (centres undefined), the IC50 was > 50 µM (inactive).

With `Cc1ccc(C(=O)c2cn(CC(=O)Nc3ccccc3)c3ccc(C)cc3c2=O)cc1`, the IC50 is 4.45 µM.

With `CSc1ccccc1C(=O)Nc1sc2c(c1C(N)=O)CCC(C)C2` (centres undefined), the IC50 is 2.15 µM.

Turning to `COc1ccc(Cl)cc1NC(=O)Cn1c(=O)cc(C)c2c(C)nn(-c3ccccc3)c21`, the IC50 is 1.99 µM.

For `O=C(NC(Cc1ccccc1)c1nc2ccccc2[nH]1)c1ccccn1` (centres undefined), the IC50 is > 50 µM (inactive).

On to `O=C1Nc2c(Cl)cc(Cl)cc2C1(O)c1sc(NC2CCCCC2)nc1-c1ccccc1` (centres undefined), for which the concentration for half-maximal inhibition (IC50) is 31.2 µM.

As to `O=C(COc1ccc(Cl)cc1)NCc1nnc(SCC(=O)NCc2ccc3c(c2)OCO3)o1`, the IC50 was 25.8 µM.

`C[C@@H]1O[C@@H](O[C@H]2[C@H](O[C@H]3[C@H](O[C@H]4CC[C@@]5(C)[C@@H](CC[C@]6(C)[C@@H]5CC=C5[C@@H]7CC(C)(C)CC(=O)[C@]7(C)CC[C@]56C)[C@@]4(C)CO)O[C@H](C(=O)O)[C@@H](O)[C@@H]3O)OC[C@@H](O)[C@@H]2O)[C@H](O)[C@H](O)[C@H]1O`: the IC50 is > 50 µM (inactive).

For `Cn1c(=O)c2c(ncn2CC(=O)NC2CCCc3ccccc32)n(C)c1=O` (centres undefined), the IC50 is > 50 µM (inactive).

As to `CSc1ccc(CNC(=O)CC2CCN(S(=O)(=O)c3ccc(C)cc3)CC2)cc1`, the IC50 was 20.2 µM.

For the compound `CC1OC1C(=O)[C@]1(O)[C@H](C)[C@@H](O)[C@@]23O[C@@]2([C@H](O)c2c(O)cccc2C3=O)[C@H]1O` (some centres undefined), the IC50 was > 50 µM (inactive).

Consider `O=C(CSc1cn(Cc2ccccc2)c2ccccc12)Nc1ccc2c(c1)OCCO2`, for which the IC50 was > 50 µM (inactive).

`COc1ccc(C2CC(c3ccccc3)N(C(=O)C3CC3)c3ncnn32)cc1` (centres undefined): the IC50 is > 50 µM (inactive).

In the case of `Cc1ccc(-c2cn(CC(=O)N3CCN(c4ccccn4)CC3)c(=O)o2)cc1`, the IC50 is 12.3 µM.

Regarding `C[C@@H](C(=O)NCc1ccc(F)cc1)N1C(=O)N2CCc3c([nH]c4ccccc34)[C@@]2(C)C1=O`, the IC50 was 4.05 µM.

In the case of `COc1ccc(C(C)NC(=O)c2cnc(-c3ccccc3)nc2-c2ccncc2)cc1` (centres undefined), the IC50 was > 50 µM (inactive).

As for `Cc1ccc2[nH]c(=O)c(CN(Cc3cccnc3)C(=O)c3cccc(Cl)c3)cc2c1`, the IC50 was > 50 µM (inactive).

For `COc1ccccc1CNC(=O)Nc1cccc2ccccc12`, the IC50 is 25.9 µM.
